Drawing on patent US7304174B2, “CaSR antagonist” (Japan Tobacco Inc., priority 2003, dated 2007), this text covers IC50 for 24 compounds.

This test deals with T1, human calcium receptor (Homo sapiens, UniProt P41180).
T1 construct: expressed in transfected cells; host or cells: cell strain derived from rat adrenal, co-transformed with luciferase cDNA
T1 sequence (P41180 20-1078): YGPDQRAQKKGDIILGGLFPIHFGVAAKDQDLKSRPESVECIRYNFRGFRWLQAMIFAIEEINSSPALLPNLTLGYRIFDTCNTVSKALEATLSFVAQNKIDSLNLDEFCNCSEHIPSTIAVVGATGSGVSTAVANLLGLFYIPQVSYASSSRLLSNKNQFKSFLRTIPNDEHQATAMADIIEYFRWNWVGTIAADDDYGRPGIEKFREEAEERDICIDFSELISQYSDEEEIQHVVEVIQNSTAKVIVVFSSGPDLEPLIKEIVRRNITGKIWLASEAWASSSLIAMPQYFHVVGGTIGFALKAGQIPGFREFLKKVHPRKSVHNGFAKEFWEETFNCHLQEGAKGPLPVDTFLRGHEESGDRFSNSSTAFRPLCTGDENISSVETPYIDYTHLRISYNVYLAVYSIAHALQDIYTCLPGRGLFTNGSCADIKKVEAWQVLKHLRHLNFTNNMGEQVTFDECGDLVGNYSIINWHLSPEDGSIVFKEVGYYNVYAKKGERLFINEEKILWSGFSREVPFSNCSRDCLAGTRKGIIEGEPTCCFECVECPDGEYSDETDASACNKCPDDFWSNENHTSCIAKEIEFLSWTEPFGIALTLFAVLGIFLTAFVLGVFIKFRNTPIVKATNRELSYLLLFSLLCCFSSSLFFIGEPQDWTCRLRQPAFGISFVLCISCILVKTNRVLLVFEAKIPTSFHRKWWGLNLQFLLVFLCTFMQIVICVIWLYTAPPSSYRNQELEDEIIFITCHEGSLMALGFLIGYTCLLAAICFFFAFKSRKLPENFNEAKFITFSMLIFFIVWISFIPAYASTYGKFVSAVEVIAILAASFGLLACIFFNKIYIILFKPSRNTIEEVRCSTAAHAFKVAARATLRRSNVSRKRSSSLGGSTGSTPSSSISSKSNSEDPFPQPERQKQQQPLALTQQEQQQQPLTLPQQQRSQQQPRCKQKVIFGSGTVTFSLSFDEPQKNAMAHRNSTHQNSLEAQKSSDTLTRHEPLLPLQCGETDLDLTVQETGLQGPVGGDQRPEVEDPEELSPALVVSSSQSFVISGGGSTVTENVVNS
Kind of test: Evaluation of antagonistic action on calcium receptor using reporter gene (luciferase). The note with it: transformed rat adrenal derived cells, 5 mM calcium chloride, culture 4 hrs, luciferase activity; read-out: Reporter gene assay (IC50, concentration showing 50% inhibitory rate). Format: cell-based. The procedure, abridged:
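Rat adrenal-derived cells transfected with luciferase and human calcium receptor cDNA, in F12 with 0.5% dialyzed horse serum and 0.25% dialyzed fetal bovine serum. Luciferase luminescence gave % inhibition vs control and blank; IC50 at 50% inhibition.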
On the technique in general: A reporter such as luciferase makes a cellular process visible.
As to `COc1cc(C(=O)O)cc(OC)c1Oc1ccccc1C(C)OC[C@H](O)CNC(C)(C)Cc1ccc(C)c(F)c1` (stereo partly drawn) [Example 2-27, 4-[2-[1-[(2R)-3-[[1-(3-fluoro-4-methylphenyl)-2-methylpropan-2-yl]amino]-2-hydroxypropoxy]ethyl]phenoxy]-3,5-dimethoxybenzoic acid], the IC50 came out at 27 nM. To `Cc1cc(C(=O)O)ccc1-c1ccccc1[C@@H](C)OC[C@H](O)CNC(C)(C)Cc1ccc(Cl)c(F)c1` [Example 1-83, 2′-[1-[(2R)-3-[[1-(4-chloro-3-fluorophenyl)-2-methylpropan-2-yl]amino]-2-hydroxypropoxy]ethyl]-2-methylbiphenyl-4-carboxylic acid] belongs 16 nM; to `Cc1cc(C(=O)O)ccc1-c1ccccc1[C@@H](C)OC[C@H](O)CNC(C)(C)Cc1ccc2ccccc2c1` [Example 1-54, 2-methyl-2′-[1-[(2R)-3-[[1-(naphthalen-2-yl)-2-methylpropan-2-yl]amino]-2-hydroxypropoxy]ethyl]biphenyl-4-carboxylic acid], 23 nM. To `Cc1ccc(CC(C)(C)NC[C@@H](O)CO[C@H](C)c2ccccc2-c2ccc(C(=O)O)c(O)c2)cc1F` [Example 1-50, 2′-[1-[(2R)-3-[[1-(3-fluoro-4-methylphenyl)-2-methylpropan-2-yl]amino]-2-hydroxypropoxy]ethyl]-3-hydroxybiphenyl-4-carboxylic acid] belongs 2 nM.

With `Cc1cc(-c2ccccc2[C@@H](C)OC[C@H](O)CNC(C)(C)Cc2cc(C(F)(F)F)cc(C(F)(F)F)c2)ccc1C(=O)O` [Example 1-94, 2′-[1-[(2R)-3-[[1-(3,5-ditrifluoromethylphenyl)-2-methylpropan-2-yl]amino]-2-hydroxypropoxy]ethyl]-3-methylbiphenyl-4-carboxylic acid], the IC50 was determined as 28 nM. As to `CC(OC[C@H](O)CNC(C)(C)Cc1ccc2ccccc2c1)c1ccccc1-c1ccc(C(=O)O)c(C(F)(F)F)c1` (stereo partly drawn) [Example 1-28, 2′-[1-[(2R)-3-[[1-(naphthalen-2-yl)-2-methylpropan-2-yl]amino]-2-hydroxypropoxy]ethyl]-3-(trifluoromethyl)biphenyl-4-carboxylic acid], the IC50 was found to be 7 nM. As for `CCc1ccc(CC(C)(C)NC[C@@H](O)CO[C@H](C)c2ccccc2-c2ccc(C(=O)O)c(C)c2)cc1F` [Example 1-8, 2′-[1-[(2R)-3-[[1-(4-ethyl-3-fluorophenyl)-2-methylpropan-2-yl]amino]-2-hydroxypropoxy]ethyl]-3-methylbiphenyl-4-carboxylic acid], the IC50 is 15 nM.

In the case of `Cc1ccc(CC(C)(C)NC[C@@H](O)COC(C)c2ccccc2Oc2c(C)cc(C(=O)O)cc2C)cc1F` (stereo partly drawn) [Example 2-12, 4-[2-[1-[(2R)-3-[[1-(3-fluoro-4-methylphenyl)-2-methylpropan-2-yl]amino]-2-hydroxypropoxy]ethyl]phenoxy]-3,5-dimethylbenzoic acid], the IC50 is 5 nM. As for `C[C@@H](OC[C@H](O)CNC(C)(C)Cc1ccc(Cl)c(F)c1)c1ccccc1-c1ccc(C(=O)O)c(CO)c1` [Example 1-106, 2′-[1-[(2R)-3-[[1-(4-chloro-3-fluorophenyl)-2-methylpropan-2-yl]amino]-2-hydroxypropoxy]ethyl]-3-(hydroxymethyl)biphenyl-4-carboxylic acid], the IC50 came to 20 nM.

For the compound `CC(OC[C@H](O)CNC(C)(C)Cc1ccc2ccccc2c1)c1ccccc1Cc1ccc(C(=O)O)cc1` (stereo partly drawn) [2-14′], the IC50 amounted to 30 nM. Turning to `Cc1cc(-c2ccccc2[C@@H](C)OC[C@H](O)CNC(C)(C)Cc2ccc(Cl)cc2F)ccc1C(=O)O` [Example 1-109], the IC50 came out at 15 nM. As for `CCCc1cc(-c2ccccc2[C@@H](C)OC[C@H](O)CNC(C)(C)Cc2ccc(C)c(F)c2)ccc1C(=O)O` [Example 1-38, 2′-[1-[(2R)-3-[[1-(3-fluoro-4-methylphenyl)-2-methylpropan-2-yl]amino]-2-hydroxypropoxy]ethyl]-3-propylbiphenyl-4-carboxylic acid], the IC50 was 2 nM. To `COC(=O)c1ccc(Oc2ccccc2C(C)OC[C@H](O)CNC(C)(C)Cc2ccc3ccccc3c2)cc1` (stereo partly drawn) [Example 2-3, methyl 4-[2-[1-[(2R)-3-[[1-(naphthalen-2-yl)-2-methylpropan-2-yl]amino]-2-hydroxypropoxy]ethyl]phenoxy]benzoate] belongs 71 nM; to `CC(OC[C@H](O)CNC(C)(C)Cc1ccc2ccccc2c1)c1ccccc1[S+]([O-])c1ccc(C(=O)O)cc1` (stereo partly drawn) [Example 2-17, 4-[2-[1-[(2R)-3-[[1-(naphthalen-2-yl)-2-methylpropan-2-yl]amino]-2-hydroxypropoxy]ethyl]phenylsulfinyl]benzoic acid], 148 nM; to `C[C@@H](OC[C@H](O)CNC(C)(C)Cc1ccc2ccccc2c1)c1ccccc1-c1ccc(C(=O)O)c([N+](=O)[O-])c1` [Example 1-69, 2′-[1-[(2R)-3-[[1-(naphthalen-2-yl)-2-methylpropan-2-yl]amino]-2-hydroxypropoxy]ethyl]-3-nitrobiphenyl-4-carboxylic acid], 2 nM. To `Cc1ccc(CC(C)(C)NC[C@@H](O)CO[C@H](C)c2ccccc2-c2ccc(C)c(C(=O)O)c2)cc1F` [Example 1-86, 2′-[1-[(2R)-3-[[1-(3-fluoro-4-methylphenyl)-2-methylpropan-2-yl]amino]-2-hydroxypropoxy]ethyl]-4-methylbiphenyl-3-carboxylic acid] belongs 14 nM. With `CC(OC[C@H](O)CNC(C)(C)Cc1ccc2ccccc2c1)c1ccccc1OCc1ccc(C(=O)O)cc1` (stereo partly drawn) [2-22′], the IC50 turned out to be 23 nM. For `Cc1cc(C(=O)O)ccc1-c1ccccc1C(OC[C@H](O)CNC(C)(C)Cc1ccc2ccccc2c1)C1CC1` (stereo partly drawn) [Example 1-66, 2′-[(cyclopropyl)[(2R)-3-[[1-(naphthalen-2-yl)-2-methylpropan-2-yl]amino]-2-hydroxypropoxy]methyl]-2-methylbiphenyl-4-carboxylic acid], the IC50 is 17 nM.

For the compound `Cc1cc(-c2ccccc2[C@@H](C)OC[C@H](O)CNC(C)(C)Cc2ccc3ccccc3c2)ccc1C(=O)O` [Example 1-55, 3-methyl-2′-[1-[(2R)-3-[[1-(naphthalen-2-yl)-2-methylpropan-2-yl]amino]-2-hydroxypropoxy]ethyl]biphenyl-4-carboxylic acid], the IC50 was determined as 10 nM. As for `Cc1cc(CC(C)(C)NC[C@@H](O)CO[C@H](C)c2ccccc2-c2ccc(C(=O)O)c(C)c2)ccc1Cl` [Example 1-4, 2′-[1-[(2R)-3-[[1-(4-chloro-3-methylphenyl)-2-methylpropan-2-yl]amino]-2-hydroxypropoxy]ethyl]-3-methylbiphenyl-4-carboxylic acid], the figure is 14 nM; as for `C[C@@H](OC[C@H](O)CNC(C)(C)Cc1ccc(Cl)c(Cl)c1)c1ccccc1-c1ccc(C(=O)O)cc1F` [Example 1-67, 2′-[1-[(2R)-3-[[1-(3,4-dichlorophenyl)-2-methylpropan-2-yl]amino]-2-hydroxypropoxy]ethyl]-2-fluorobiphenyl-4-carboxylic acid], 19 nM. To `Cc1ccc(CC(C)(C)NC[C@@H](O)CO[C@H](C)c2ccccc2-c2ccc(C(=O)O)c(OC(F)(F)F)c2)cc1F` [Example 1-103, 2′-[1-[(2R)-3-[[1-(3-fluoro-4-methylphenyl)-2-methylpropan-2-yl]amino]-2-hydroxypropoxy]ethyl]-3-(trifluoromethoxy)biphenyl-4-carboxylic acid] belongs 3 nM; to `C[C@@H](OC[C@H](O)CNC(C)(C)Cc1ccc2ccccc2c1)c1ccccc1-c1ccc(C(=O)O)c(N(C)C)c1` [Example 1-77, 3-(dimethylamino)-2′-[1-[(2R)-3-[[1-(naphthalen-2-yl)-2-methylpropan-2-yl]amino]-2-hydroxypropoxy]ethyl]biphenyl-4-carboxylic acid], 21 nM.

In the case of `Cc1cc(-c2ccccc2[C@H](OC[C@H](O)CNC(C)(C)Cc2ccc3ccccc3c2)C2CC2)ccc1C(=O)O` [Example 1-11, 2′-[(cyclopropyl)[(2R)-3-[[1-(naphthalen-2-yl)-2-methylpropan-2-yl]amino]-2-hydroxypropoxy]methyl]-3-methylbiphenyl-4-carboxylic acid], the IC50 was found to be 18 nM.
